This note sets out measurements from ChEMBL document CHEMBL5532719, “Insight on Some Newly Synthesized Trisubstituted Imidazolinones as VEGFR-2 Inhibitors” (ACS Med Chem Lett, 2024).

The structures appear in SMILES notation. In brackets after ≈: the same amount, converted by molar mass.

The subject of one data set is A549. The data set is described as follows: Cytotoxicity against human A549 cells incubated for 72 hrs by MTT assay. The data set is classed as functional, cell-based. The following applies: A549, 72 h.
For data set [1], the system named is MCF7. In words: Cytotoxicity against human MCF7 cells incubated for 72 hrs by MTT assay. The data set is classed as functional, cell-based. The following applies: MCF7, 72 h. (Tetrazolium dyes change colour on reduction, which living cells bring about.)
Data set [2] addresses T1, Vascular endothelial growth factor receptor 2 (Homo sapiens, UniProt P35968). The data set is described as follows: Inhibition of recombinant VEGFR2 (unknown origin) using poly (Glu,Tyr) 4:1 as substrate measured after 45 mins in presence of ATP by microplate reader analysis.
The subject of data set [3] is MCF7. In words: Cytotoxicity against human MCF-7 cells. Type of data set: functional, cell-based.
The next data set relates to HepG2. In words: Cytotoxicity against human HepG2 cells. Type of data set: functional, cell-based.
Data set [4] is described as follows: Cytotoxicity against HUVECs incubated for 72 hrs by MTT assay. The data set is classed as toxicity, cell-based. The note with it: human, HUVEC cells.
The next data set relates to HUVEC. In words: Inhibition of cell migration in human HUVECs assessed as reduction in wound closure percentage (reference value: 97.037%). The data set is classed as functional. Further details: scale not given: the % may be the effect or the level left.
The target in data set [5] is T1, Vascular endothelial growth factor receptor 2. In words: Inhibition of recombinant human VEGFR-2 using poly (Glu,Tyr) 4:1 as substrate in presence of ATP.
For data set [6], the system named is MCF7. The data set is described as follows: Induction of apoptosis in human MCF7 cells assessed as late apoptotic cells at 5.86 uM incubated for 72 hrs by Annexin-V/PI staining based flow cytometry analysis (reference value: 0.68%). Type of data set: functional. (In general: A flow cytometer gives signals particle by particle.)
Data set [7] deals with MCF7. The data set is described as follows: Induction of cell cycle arrest in human MCF7 cells assessed as G2/M phase arrest at 5.86 uM incubated for 72 hrs by PI staining based flow cytometry analysis (reference value: 13.52%). The data set is classed as functional.
For data set [8], the system named is MCF7. The data set is described as follows: Induction of apoptosis in human MCF7 cells assessed as early apoptotic cells at 5.86 uM incubated for 72 hrs by Annexin-V/PI staining based flow cytometry analysis (reference value: 0.06%). The data set is classed as functional.
The test system of data set [9] is MCF7. In words: Induction of cell cycle arrest in human MCF7 cells assessed as G1 phase arrest at 5.86 uM incubated for 72 hrs by PI staining based flow cytometry analysis (reference value: 11.07%). The data set is classed as functional.
Data set [10] can be described thus: Cytotoxicity against human WI-38 cells incubated for 72 hrs by MTT assay. The data set is classed as toxicity, cell-based.
Data set [11] relates to MCF7. The data set is described as follows: Induction of apoptosis in human MCF7 cells assessed as necrotic cells at 5.86 uM incubated for 72 hrs by Annexin-V/PI staining based flow cytometry analysis (reference value: 0.02%). The data set is classed as functional.
The nature of data set [12]: Selectivity index, ratio of IC50 for human WI-38 cells to IC50 for human A549 cells. The note with it: WI-38 cells versus A549 cells, read-out: Ratio IC50. Type of data set: toxicity.
The nature of data set [13]: Selectivity index, ratio of IC50 for human WI-38 cells to IC50 for human MCF7 cells. Type of data set: toxicity. The following applies: WI-38 cells versus MCF7 cells, read-out: Ratio IC50.

T1 sequence (P35968 whole entry): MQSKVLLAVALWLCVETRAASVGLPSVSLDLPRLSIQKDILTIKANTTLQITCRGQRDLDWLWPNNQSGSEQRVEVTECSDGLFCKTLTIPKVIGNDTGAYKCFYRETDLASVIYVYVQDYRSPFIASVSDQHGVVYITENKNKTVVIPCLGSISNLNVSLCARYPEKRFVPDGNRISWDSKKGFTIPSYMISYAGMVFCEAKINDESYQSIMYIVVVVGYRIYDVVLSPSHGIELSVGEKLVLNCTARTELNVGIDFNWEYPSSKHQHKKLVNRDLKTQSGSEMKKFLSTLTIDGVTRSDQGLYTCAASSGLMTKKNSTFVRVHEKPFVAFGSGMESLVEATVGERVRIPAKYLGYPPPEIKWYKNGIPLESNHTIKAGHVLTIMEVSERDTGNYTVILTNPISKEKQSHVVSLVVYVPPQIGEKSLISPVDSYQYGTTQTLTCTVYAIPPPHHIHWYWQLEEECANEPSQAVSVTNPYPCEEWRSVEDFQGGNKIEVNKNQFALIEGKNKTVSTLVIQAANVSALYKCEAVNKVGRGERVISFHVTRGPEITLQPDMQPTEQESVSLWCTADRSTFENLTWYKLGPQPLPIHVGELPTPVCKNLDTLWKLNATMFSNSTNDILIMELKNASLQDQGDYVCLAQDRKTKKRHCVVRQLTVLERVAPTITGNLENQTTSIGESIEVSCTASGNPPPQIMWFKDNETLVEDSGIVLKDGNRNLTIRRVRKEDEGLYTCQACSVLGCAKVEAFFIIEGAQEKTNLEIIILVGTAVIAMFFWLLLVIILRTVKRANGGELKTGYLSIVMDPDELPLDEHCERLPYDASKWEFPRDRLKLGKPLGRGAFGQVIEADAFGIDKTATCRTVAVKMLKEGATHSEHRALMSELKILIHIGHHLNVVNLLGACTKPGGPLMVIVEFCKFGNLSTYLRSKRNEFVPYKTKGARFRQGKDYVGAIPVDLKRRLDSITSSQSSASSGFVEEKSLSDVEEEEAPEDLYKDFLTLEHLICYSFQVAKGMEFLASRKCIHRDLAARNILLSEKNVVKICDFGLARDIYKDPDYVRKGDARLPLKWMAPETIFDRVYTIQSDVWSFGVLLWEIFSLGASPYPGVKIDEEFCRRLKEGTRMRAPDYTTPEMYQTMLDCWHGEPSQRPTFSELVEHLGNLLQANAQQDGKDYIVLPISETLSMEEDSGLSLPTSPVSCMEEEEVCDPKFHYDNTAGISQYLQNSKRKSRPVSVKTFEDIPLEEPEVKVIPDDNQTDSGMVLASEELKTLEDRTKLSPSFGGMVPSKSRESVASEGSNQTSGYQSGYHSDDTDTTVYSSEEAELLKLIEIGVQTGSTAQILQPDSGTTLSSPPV

For the compound `CN(C)c1ccc(/C=C2\N=C(c3ccccc3)N(c3ccc(S(=O)(=O)Nc4ncccn4)cc3)C2=O)cc1`, the IC50 (usually the midpoint of a concentration-inhibition curve) came to 29.6 µM with A549 and 21.1 µM in the data set with MCF7 [1].
For the compound `Cc1cc(NS(=O)(=O)c2ccc(NC(=O)COC(=O)c3ccc(N4C(=O)/C(=C/c5ccc(N(C)C)cc5)N=C4c4ccc(Cl)cc4)cc3)cc2)no1`, the figures for the IC50 in the data set on A549 and in the data set with MCF7 [1] were 45.5 µM and 42.1 µM, respectively.
With `CN(C)c1ccc(/C=C2\N=C(c3ccccc3)N(c3ccc(S(=O)(=O)NC(=N)N)cc3)C2=O)cc1`, the values for the IC50 with A549 and in the data set on MCF7 [1] were 61.2 µM and 37.4 µM, respectively.
Consider `Cc1cc(NS(=O)(=O)c2ccc(N3C(=O)/C(=C/c4ccc(N(C)C)cc4)N=C3c3ccc(Cl)cc3)cc2)no1`, for which the IC50 stood at 42.4 µM in the data set with A549, 0.11 µM in [2] and 11.5 µM in the data set on MCF7 [1].
For the compound `Cc1cc(NS(=O)(=O)c2ccc(NC(=O)COC(=O)c3ccc(N4C(=O)/C(=C/c5ccc(N(C)C)cc5)N=C4c4ccccc4)cc3)cc2)no1`, the IC50 in the data set with A549 was 30.6 µM; in the data set on MCF7 [1], 26.8 µM.
As to `CN(C)c1ccc(/C=C2\N=C(c3ccccc3)N(c3ccc(S(N)(=O)=O)cc3)C2=O)cc1`, the IC50 was found to be 29 µM with A549, 0.2 µM in data set [2] and 19.5 µM with MCF7 [1].
On to `CN(C)c1ccc(/C=C2\N=C(c3ccc(Cl)cc3)N(c3ccc(C(=O)OCC(=O)Nc4ccc(S(=O)(=O)Nc5ncccn5)cc4)cc3)C2=O)cc1`, for which the results for the IC50 in the data set with A549 and in the data set on MCF7 [1] were 58 µM and 28.4 µM, respectively.
For `COc1cccc2c1C(=O)c1c(O)c3c(c(O)c1C2=O)C[C@@](O)(C(=O)CO)C[C@@H]3O[C@H]1C[C@H](N)[C@H](O)[C@H](C)O1` [DOXORUBICIN], the 50% inhibitory concentration (IC50) with A549 came out at 4.99 µM; in the data set with MCF7 [1], 6.52 µM.
Regarding `CN(C)c1ccc(/C=C2\N=C(c3ccccc3)N(c3ccc(S(=O)(=O)Nc4nccs4)cc3)C2=O)cc1`, the values for the IC50 in the data set with A549 and in the data set on MCF7 [1] were 31.6 µM and 39.9 µM, respectively.
For `CC(=O)Oc1ccc(/C=C2\N=C(c3ccc(Cl)cc3)N(c3ccccc3)C2=O)cc1Br`, the IC50 worked out at 17.8 µg/mL (≈ 35.9 µM) in the data set on MCF7 [3] and 4.6 µg/mL (≈ 9.28 µM) in the data set on HepG2.
For `CN(C)c1ccc(/C=C2\N=C(c3ccccc3)N(c3ccc(C(=O)OCC(=O)Nc4ccc(S(=O)(=O)Nc5nccs5)cc4)cc3)C2=O)cc1`, the IC50 in the data set on A549 worked out at 16.6 µM; with MCF7 [1] it was 26.5 µM.
Compound `CNC(=O)c1cc(Oc2ccc(NC(=O)Nc3ccc(Cl)c(C(F)(F)F)c3)cc2)ccn1` [SORAFENIB] had an IC50 at 72 h in data set [4] of 89.8 µM. The IC50 stood at 7.46 µM in the data set on A549 and 4.88 µM in the data set with MCF7 [1]. Further, the Activity in the data set with HUVEC was 57.037%.
In the case of `CN(C)c1ccc(/C=C2\N=C(c3ccc(Cl)cc3)N(c3ccc(C(=O)OCC(=O)Nc4ccc(S(N)(=O)=O)cc4)cc3)C2=O)cc1`, the IC50 in the data set with A549 came to 25 µM; in data set [2], 0.36 µM; with MCF7 [1], 24.2 µM.
For `C/C(=N\N1C(=O)CNC1=S)c1ccc(O)cc1O`, in [5], the IC50 is 0.0251 µM.
Take `CN(C)c1ccc(/C=C2\N=C(c3ccc(Cl)cc3)N(c3ccc(S(=O)(=O)Nc4ncccn4)cc3)C2=O)cc1`: the IC50 at 72 h in [4] stood at 179 µM; in [10], 21.6 µM. Moreover, the Activity was determined as 42.21% in the data set with MCF7 [6]; 35.17% in the data set with MCF7 [7]; 22.84% with MCF7 [8]; 22.68% in the data set on MCF7 [9]; 1.64% with MCF7 [11]; 65.926% with HUVEC. In addition, the IC50 amounted to 7.66 µM in the data set on A549, 0.07 µM in data set [2] and 5.86 µM with MCF7 [1]. The selectivity ratio in [12] was 2.88; in data set [13], 3.69.
For the compound `O=C1/C(=C/c2ccc(O)c(Br)c2)N=C(c2ccc(Cl)cc2)N1c1ccccc1`, the results for the IC50 in the data set on MCF7 [3] and with HepG2 were 18 µg/mL (≈ 39.7 µM) and 6.1 µg/mL (≈ 13.4 µM), respectively.
`CN(C)c1ccc(/C=C2\N=C(c3ccc(Cl)cc3)N(c3ccc(S(=O)(=O)Nc4nccs4)cc3)C2=O)cc1`: the IC50 in the data set with A549 was 16.2 µM; in data set [2], 0.1 µM; in the data set with MCF7 [1], 8.65 µM.
With `CN(C)c1ccc(/C=C2\N=C(c3ccc(Cl)cc3)N(c3ccc(S(=O)(=O)NC(=N)N)cc3)C2=O)cc1`, the IC50 with A549 was determined as 27.8 µM; in data set [2], 0.16 µM; in the data set on MCF7 [1] it was 13.6 µM.
On to `CN(C)c1ccc(/C=C2\N=C(c3ccccc3)N(c3ccc(C(=O)OCC(=O)Nc4ccc(S(=O)(=O)Nc5ncccn5)cc4)cc3)C2=O)cc1`, for which the figures for the IC50 in the data set on A549 and in the data set with MCF7 [1] were 27.3 µM and 28.8 µM, respectively.
`CN(C)c1ccc(/C=C2\N=C(c3ccccc3)N(c3ccc(C(=O)OCC(=O)Nc4ccc(S(=O)(=O)NC(=N)N)cc4)cc3)C2=O)cc1`: the IC50 came to 38.7 µM with A549 and 27.7 µM in the data set with MCF7 [1].
In the case of `CN(C)c1ccc(/C=C2\N=C(c3ccc(Cl)cc3)N(c3ccc(C(=O)OCC(=O)Nc4ccc(S(=O)(=O)Nc5nccs5)cc4)cc3)C2=O)cc1`, the half-inhibitory concentration (IC50) in the data set with A549 was 12.9 µM; in data set [2], 0.11 µM; in the data set with MCF7 [1] it was 10 µM.
The matching figures for `CN(C)c1ccc(/C=C2\N=C(c3ccc(Cl)cc3)N(c3ccc(S(N)(=O)=O)cc3)C2=O)cc1`: 28.8 µM, 0.1 µM and 11.5 µM.
The matching figures for `Cc1cc(NS(=O)(=O)c2ccc(N3C(=O)/C(=C/c4ccc(N(C)C)cc4)N=C3c3ccccc3)cc2)no1`: 10.1 µM, 0.14 µM and 9.85 µM.
`CCOC(=O)/C(C#N)=C(\c1ccc(O)cc1)N1CC(=O)N(/N=C(\C)c2ccc(O)cc2O)C1=S`: the IC50 in [5] worked out at 0.0198 µM.
As to `CN(C)c1ccc(/C=C2\N=C(c3ccc(Cl)cc3)N(c3ccc(C(=O)OCC(=O)Nc4ccc(S(=O)(=O)NC(=N)N)cc4)cc3)C2=O)cc1`, the IC50 in the data set with A549 was 20.2 µM; in the data set with MCF7 [1], 17.2 µM.
`CN(C)c1ccc(/C=C2\N=C(c3ccccc3)N(c3ccc(C(=O)OCC(=O)Nc4ccc(S(N)(=O)=O)cc4)cc3)C2=O)cc1`: the IC50 in the data set on A549 worked out at 14.1 µM; in data set [2], 0.02 µM; in the data set on MCF7 [1] it was 17.7 µM.
